ChEMBL document CHEMBL1201862, “PubChem BioAssay data set” (2004)
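Five compound concentrations were applied to cells in 96-well plates for 48 hours; endpoints were derived by simple linear interpolation of the resulting dose-response curve. GI50 = concentration required for 50% inhibition of growth.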 Calls of active or inactive are those of the source. No stated cut-off is given here; in the data, active = GI50 up to about 1.1 µM and inactive = higher.

Assays:
Experiment in all cases: growth of human tumour cells (NCI), 48 h
A498 = system: A498
HL-60 = system: HL-60
HT-29 = system: HT-29
MDA-MB-231 = system: MDA-MB-231
MDA-N = system: MDA-N
NCI-H226 = system: NCI-H226
NCI-H460 = system: NCI-H460
NCI-H522 = system: NCI-H522
OVCAR-3 = system: OVCAR-3
OVCAR-4 = system: OVCAR-4
OVCAR-8 = system: OVCAR-8
PC-3 = system: PC-3
RPMI-8226 = system: RPMI-8226
SF-539 = system: SF-539
SK-MEL-2 = system: SK-MEL-2
SK-MEL-5 = system: SK-MEL-5
SR = system: SR
UACC-62 = system: UACC-62
UO-31 = system: UO-31
SN12C = system: SN12C

Measured: GI50

Cc1ccc(S(=O)(=O)n2c3c(c4ccccc42)CCN2C[C@H]([C@H](C)Br)CC[C@@H]32)cc1
inactive: A498 > 100 µM | HL-60 6.46 µM | HT-29 > 100 µM | MDA-MB-231 > 100 µM | MDA-N > 100 µM | NCI-H226 > 100 µM | NCI-H460 > 100 µM | NCI-H522 > 100 µM | OVCAR-3 > 100 µM | OVCAR-4 > 100 µM | OVCAR-8 > 100 µM | PC-3 > 100 µM | RPMI-8226 13.1 µM | SF-539 > 100 µM | SK-MEL-2 > 100 µM | SK-MEL-5 29.2 µM | SR 4.01 µM | UACC-62 > 100 µM | UO-31 > 100 µM

CC(=O)OCC1OC(n2c(S)nc(-c3ccccc3)c(C#N)c2=O)C(OC(C)=O)C(OC(C)=O)C1OC(C)=O (stereo not drawn)
inactive: A498 > 100 µM | HL-60 > 100 µM | HT-29 > 100 µM | MDA-MB-231 > 100 µM | MDA-N > 100 µM | NCI-H226 > 100 µM | NCI-H460 > 100 µM | NCI-H522 > 100 µM | OVCAR-3 > 100 µM | OVCAR-4 > 100 µM | OVCAR-8 > 100 µM | PC-3 > 100 µM | RPMI-8226 > 100 µM | SF-539 > 100 µM | SK-MEL-2 > 100 µM | SK-MEL-5 > 100 µM | SN12C > 100 µM | SR > 100 µM | UACC-62 > 100 µM | UO-31 > 100 µM

O=C1C=C(Nc2ccc(S(=O)(=O)Nc3nccs3)cc2)c2ccccc2C1=O
inactive: A498 71 µM | HL-60 24.7 µM | HT-29 19.1 µM | MDA-MB-231 26.5 µM | MDA-N 18.8 µM | NCI-H226 21.9 µM | NCI-H460 34 µM | NCI-H522 38.5 µM | OVCAR-3 17 µM | OVCAR-4 32.9 µM | OVCAR-8 23.1 µM | PC-3 71.4 µM | RPMI-8226 37.3 µM | SF-539 21.1 µM | SK-MEL-2 28.6 µM | SK-MEL-5 19.9 µM | SN12C 24.6 µM | SR 39.5 µM | UACC-62 24.5 µM | UO-31 56.9 µM

CN(C)CCOc1ccc(-c2c(Oc3ccc(Cl)cc3)c(=O)oc3ccccc23)cc1
inactive: A498 19.4 µM | HL-60 5.61 µM | HT-29 > 20.5 µM | MDA-MB-231 7.78 µM | MDA-N 2.61 µM | NCI-H226 > 35.6 µM | NCI-H460 7.35 µM | NCI-H522 8.75 µM | OVCAR-3 12.4 µM | OVCAR-4 9.68 µM | OVCAR-8 > 24.5 µM | PC-3 6.64 µM | RPMI-8226 8.43 µM | SF-539 9.84 µM | SK-MEL-2 7.59 µM | SK-MEL-5 2.01 µM | SN12C 13.7 µM | SR 4.09 µM | UACC-62 4.97 µM | UO-31 5.43 µM

Cc1cc2oc(C)c(S(=O)(=O)NC(=O)Nc3ccc(Cl)cc3)c(=O)c2c(=O)o1
inactive: A498 > 100 µM | HL-60 > 100 µM | HT-29 > 100 µM | MDA-MB-231 > 100 µM | MDA-N > 100 µM | NCI-H226 > 100 µM | NCI-H460 > 100 µM | NCI-H522 > 100 µM | OVCAR-3 > 100 µM | OVCAR-4 > 100 µM | OVCAR-8 > 100 µM | PC-3 83.6 µM | RPMI-8226 > 100 µM | SF-539 > 100 µM | SK-MEL-2 > 100 µM | SK-MEL-5 > 100 µM | SN12C > 100 µM | SR > 100 µM | UACC-62 30.9 µM | UO-31 > 100 µM

O=C(O)C1C2C=CC(O2)C1C(=O)NCc1ccccn1 (stereo not drawn)
inactive: A498 > 100 µM | HL-60 > 100 µM | HT-29 > 100 µM | MDA-MB-231 > 100 µM | MDA-N > 100 µM | NCI-H226 > 100 µM | NCI-H460 > 100 µM | NCI-H522 > 100 µM | OVCAR-3 > 100 µM | OVCAR-4 > 100 µM | OVCAR-8 > 100 µM | PC-3 > 100 µM | RPMI-8226 > 100 µM | SF-539 > 100 µM | SK-MEL-2 > 100 µM | SK-MEL-5 > 100 µM | SN12C > 100 µM | SR > 100 µM | UACC-62 > 100 µM | UO-31 > 100 µM

OC1CCCCCCCCCCC1SCCCCl (stereo not drawn)
inactive: A498 > 100 µM | HL-60 > 100 µM | HT-29 > 100 µM | MDA-MB-231 > 100 µM | MDA-N > 100 µM | NCI-H226 > 100 µM | NCI-H460 > 100 µM | NCI-H522 > 100 µM | OVCAR-3 > 100 µM | OVCAR-4 > 100 µM | OVCAR-8 > 100 µM | PC-3 > 100 µM | RPMI-8226 > 100 µM | SF-539 > 100 µM | SK-MEL-2 > 100 µM | SK-MEL-5 > 100 µM | SN12C > 100 µM | SR > 100 µM | UACC-62 > 100 µM | UO-31 > 100 µM

COc1c2c(c3c(c1OC)c(=O)c1ccccc1n3C)OCO2
inactive: A498 > 100 µM | HL-60 > 100 µM | HT-29 > 100 µM | MDA-MB-231 > 100 µM | MDA-N > 100 µM | NCI-H226 > 100 µM | NCI-H460 36.1 µM | NCI-H522 > 100 µM | OVCAR-3 > 100 µM | OVCAR-4 76.2 µM | OVCAR-8 > 100 µM | PC-3 > 100 µM | RPMI-8226 > 100 µM | SF-539 > 100 µM | SK-MEL-2 > 100 µM | SK-MEL-5 > 100 µM | SN12C > 100 µM | SR > 100 µM | UACC-62 > 100 µM | UO-31 > 100 µM

N=c1oc2ccc(Cl)cc2cc1C(=O)NCc1ccccc1
inactive: A498 63.5 µM | HL-60 11 µM | HT-29 > 100 µM | MDA-MB-231 > 100 µM | MDA-N > 81.7 µM | NCI-H226 > 100 µM | NCI-H460 > 100 µM | NCI-H522 24.7 µM | OVCAR-3 > 100 µM | OVCAR-4 > 100 µM | OVCAR-8 > 100 µM | PC-3 98.9 µM | RPMI-8226 > 89.3 µM | SF-539 > 100 µM | SK-MEL-2 51.1 µM | SK-MEL-5 > 100 µM | SN12C > 100 µM | SR > 57.1 µM | UACC-62 31.6 µM | UO-31 > 61.7 µM

CCOC(=O)/C(C(C)=O)=C(\OC(C)=O)c1ccncc1C(=O)O
inactive: A498 > 100 µM | HL-60 > 100 µM | HT-29 > 100 µM | MDA-MB-231 > 100 µM | MDA-N > 100 µM | NCI-H226 > 100 µM | NCI-H460 > 100 µM | NCI-H522 > 100 µM | OVCAR-3 > 100 µM | OVCAR-4 > 100 µM | OVCAR-8 > 100 µM | PC-3 > 100 µM | RPMI-8226 > 100 µM | SF-539 > 100 µM | SK-MEL-2 > 100 µM | SN12C > 100 µM | SR > 100 µM | UACC-62 > 100 µM | UO-31 > 100 µM
